Source: ChEMBL document CHEMBL1201862, “PubChem BioAssay data set” (2004)
Calls of active or inactive are those of the source.

Experiments:
Type in all cases: functional
[1] = biological target: Potassium voltage-gated channel subfamily KQT member 2 (Rattus norvegicus, UniProt O88943); experiment: potentiation of rat KCNQ2 current – cell-based, retigabine-insensitive compounds, dose response (AID 2654)
[2] = biological target: T1, Hexokinase HKDC1 (Homo sapiens, UniProt Q2TB90); experiment: inhibition of HKDC1 glucose phosphorylation – biochemical, W721R variant, dose response (AID 504729)
T1 sequence (Q2TB90 whole entry): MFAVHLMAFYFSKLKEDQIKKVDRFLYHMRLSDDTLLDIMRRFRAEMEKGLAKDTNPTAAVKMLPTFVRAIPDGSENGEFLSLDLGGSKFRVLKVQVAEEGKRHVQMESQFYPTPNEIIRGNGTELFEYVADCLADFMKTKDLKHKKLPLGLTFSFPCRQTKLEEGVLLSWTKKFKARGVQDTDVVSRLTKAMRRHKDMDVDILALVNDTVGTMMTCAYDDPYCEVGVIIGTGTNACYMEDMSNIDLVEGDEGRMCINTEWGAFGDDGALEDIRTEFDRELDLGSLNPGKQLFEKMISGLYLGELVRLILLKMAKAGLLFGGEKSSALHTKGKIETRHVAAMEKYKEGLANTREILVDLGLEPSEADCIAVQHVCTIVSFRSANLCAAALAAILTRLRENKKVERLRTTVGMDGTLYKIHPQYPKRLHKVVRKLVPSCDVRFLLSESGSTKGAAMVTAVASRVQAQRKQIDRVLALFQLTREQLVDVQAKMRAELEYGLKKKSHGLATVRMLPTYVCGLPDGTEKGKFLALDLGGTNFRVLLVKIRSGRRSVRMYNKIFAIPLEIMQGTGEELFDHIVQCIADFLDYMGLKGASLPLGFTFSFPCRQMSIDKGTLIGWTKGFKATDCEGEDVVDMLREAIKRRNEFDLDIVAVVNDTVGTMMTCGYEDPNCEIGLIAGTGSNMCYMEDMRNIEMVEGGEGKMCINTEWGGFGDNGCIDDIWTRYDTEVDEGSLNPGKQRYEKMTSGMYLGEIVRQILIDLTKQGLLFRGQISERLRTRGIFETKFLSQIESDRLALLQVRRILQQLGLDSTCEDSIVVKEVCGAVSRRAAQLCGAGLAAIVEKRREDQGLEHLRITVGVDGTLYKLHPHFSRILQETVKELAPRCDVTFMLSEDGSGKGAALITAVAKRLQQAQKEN

[3] = biological target: T2, Voltage-gated N-type calcium channel alpha-1B subunit/Amyloid beta A4 precursor protein-binding family A member 1 (Homo sapiens, UniProt Q00975+Q02410); experiment: disruptors of Mint-PDZ/N-type channel peptide interaction – biochemical, HTRF, set 2, SAR follow-up (AID 434980)
[4] = biological target: T2, Voltage-gated N-type calcium channel alpha-1B subunit/Amyloid beta A4 precursor protein-binding family A member 1; experiment: disruptors of Mint-PDZ/N-type channel peptide interaction – biochemical, HTRF, SAR follow-up (AID 2489)

T2 sequence (Q00975 whole entry): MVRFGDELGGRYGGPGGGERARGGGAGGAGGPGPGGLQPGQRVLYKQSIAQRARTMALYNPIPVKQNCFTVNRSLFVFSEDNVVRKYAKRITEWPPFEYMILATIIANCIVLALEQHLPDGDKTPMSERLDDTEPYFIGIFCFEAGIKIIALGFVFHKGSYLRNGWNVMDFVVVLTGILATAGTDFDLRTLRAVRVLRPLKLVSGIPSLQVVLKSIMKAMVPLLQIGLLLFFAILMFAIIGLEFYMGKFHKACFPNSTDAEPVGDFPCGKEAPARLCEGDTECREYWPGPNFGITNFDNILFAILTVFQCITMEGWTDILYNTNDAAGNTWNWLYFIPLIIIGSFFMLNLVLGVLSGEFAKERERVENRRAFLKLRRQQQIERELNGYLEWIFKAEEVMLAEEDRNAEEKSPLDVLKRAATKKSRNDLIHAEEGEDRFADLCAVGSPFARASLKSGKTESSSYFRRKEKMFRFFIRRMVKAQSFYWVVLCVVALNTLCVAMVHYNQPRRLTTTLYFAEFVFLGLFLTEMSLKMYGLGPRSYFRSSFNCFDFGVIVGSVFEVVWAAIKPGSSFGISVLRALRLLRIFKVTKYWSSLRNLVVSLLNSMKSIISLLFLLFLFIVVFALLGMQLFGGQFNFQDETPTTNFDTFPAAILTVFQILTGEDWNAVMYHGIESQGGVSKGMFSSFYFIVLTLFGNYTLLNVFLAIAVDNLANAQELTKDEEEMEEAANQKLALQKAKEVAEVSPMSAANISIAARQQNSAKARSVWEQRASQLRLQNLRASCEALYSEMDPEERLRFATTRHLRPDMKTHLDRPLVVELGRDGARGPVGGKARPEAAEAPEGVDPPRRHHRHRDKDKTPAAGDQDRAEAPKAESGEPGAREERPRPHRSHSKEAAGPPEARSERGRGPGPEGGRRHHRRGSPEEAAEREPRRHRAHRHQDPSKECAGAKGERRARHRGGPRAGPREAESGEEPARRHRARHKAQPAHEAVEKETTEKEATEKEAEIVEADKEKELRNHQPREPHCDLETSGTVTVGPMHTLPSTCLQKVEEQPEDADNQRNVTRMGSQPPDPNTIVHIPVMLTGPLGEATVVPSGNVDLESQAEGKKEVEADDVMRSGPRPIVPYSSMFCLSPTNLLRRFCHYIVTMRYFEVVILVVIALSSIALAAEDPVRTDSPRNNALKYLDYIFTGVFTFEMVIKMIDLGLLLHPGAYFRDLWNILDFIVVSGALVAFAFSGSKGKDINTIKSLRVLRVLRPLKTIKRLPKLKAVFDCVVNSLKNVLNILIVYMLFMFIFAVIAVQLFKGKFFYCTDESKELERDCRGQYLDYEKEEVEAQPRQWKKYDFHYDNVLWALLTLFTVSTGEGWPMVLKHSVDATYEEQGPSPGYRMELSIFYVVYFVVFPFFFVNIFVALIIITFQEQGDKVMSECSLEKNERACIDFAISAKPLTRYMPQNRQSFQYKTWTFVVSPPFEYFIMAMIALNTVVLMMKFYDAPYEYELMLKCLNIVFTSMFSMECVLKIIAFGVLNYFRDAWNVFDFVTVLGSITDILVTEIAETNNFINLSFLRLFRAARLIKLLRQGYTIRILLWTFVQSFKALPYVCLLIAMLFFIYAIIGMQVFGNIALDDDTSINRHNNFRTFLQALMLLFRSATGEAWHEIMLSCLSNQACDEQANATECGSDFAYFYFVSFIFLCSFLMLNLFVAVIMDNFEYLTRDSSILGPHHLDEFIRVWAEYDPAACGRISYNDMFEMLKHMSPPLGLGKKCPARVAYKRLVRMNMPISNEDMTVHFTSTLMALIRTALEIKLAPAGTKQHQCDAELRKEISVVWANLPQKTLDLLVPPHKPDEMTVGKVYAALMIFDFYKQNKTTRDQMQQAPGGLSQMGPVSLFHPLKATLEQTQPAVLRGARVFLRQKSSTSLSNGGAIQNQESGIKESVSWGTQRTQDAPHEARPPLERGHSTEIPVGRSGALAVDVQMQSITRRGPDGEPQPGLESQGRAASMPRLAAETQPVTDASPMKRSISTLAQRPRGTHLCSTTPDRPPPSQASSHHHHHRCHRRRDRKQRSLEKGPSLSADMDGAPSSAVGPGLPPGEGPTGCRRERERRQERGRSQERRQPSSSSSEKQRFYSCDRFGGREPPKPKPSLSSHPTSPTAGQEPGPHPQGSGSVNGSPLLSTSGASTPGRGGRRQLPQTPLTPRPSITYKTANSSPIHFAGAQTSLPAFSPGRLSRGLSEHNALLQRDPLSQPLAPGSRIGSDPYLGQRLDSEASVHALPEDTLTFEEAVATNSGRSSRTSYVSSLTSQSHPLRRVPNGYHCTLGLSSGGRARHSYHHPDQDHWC
T2 sequence (Q02410 whole entry): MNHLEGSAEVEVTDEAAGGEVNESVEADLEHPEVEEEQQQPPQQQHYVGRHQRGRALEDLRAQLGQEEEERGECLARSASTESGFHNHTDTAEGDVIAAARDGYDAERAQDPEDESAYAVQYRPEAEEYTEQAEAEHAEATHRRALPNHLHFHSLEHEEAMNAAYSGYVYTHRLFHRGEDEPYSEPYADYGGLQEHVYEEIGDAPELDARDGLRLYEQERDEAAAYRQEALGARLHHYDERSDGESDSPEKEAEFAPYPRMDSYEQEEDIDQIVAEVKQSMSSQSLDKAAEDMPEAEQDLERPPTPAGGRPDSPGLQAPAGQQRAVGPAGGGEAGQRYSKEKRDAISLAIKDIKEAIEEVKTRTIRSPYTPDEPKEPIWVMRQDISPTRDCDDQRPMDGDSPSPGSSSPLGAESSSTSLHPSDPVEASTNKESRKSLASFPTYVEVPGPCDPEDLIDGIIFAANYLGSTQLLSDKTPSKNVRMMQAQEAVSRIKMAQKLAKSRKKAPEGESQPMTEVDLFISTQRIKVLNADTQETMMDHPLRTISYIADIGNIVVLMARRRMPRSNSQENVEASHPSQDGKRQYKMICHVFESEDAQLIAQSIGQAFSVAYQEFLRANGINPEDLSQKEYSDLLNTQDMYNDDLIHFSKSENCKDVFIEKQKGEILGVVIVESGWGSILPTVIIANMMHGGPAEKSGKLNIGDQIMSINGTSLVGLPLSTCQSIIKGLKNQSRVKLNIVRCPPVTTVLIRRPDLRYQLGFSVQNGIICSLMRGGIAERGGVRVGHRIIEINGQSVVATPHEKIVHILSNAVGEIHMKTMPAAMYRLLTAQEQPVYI
Sequence of Potassium voltage-gated channel subfamily KQT member 2 (O88943 whole entry): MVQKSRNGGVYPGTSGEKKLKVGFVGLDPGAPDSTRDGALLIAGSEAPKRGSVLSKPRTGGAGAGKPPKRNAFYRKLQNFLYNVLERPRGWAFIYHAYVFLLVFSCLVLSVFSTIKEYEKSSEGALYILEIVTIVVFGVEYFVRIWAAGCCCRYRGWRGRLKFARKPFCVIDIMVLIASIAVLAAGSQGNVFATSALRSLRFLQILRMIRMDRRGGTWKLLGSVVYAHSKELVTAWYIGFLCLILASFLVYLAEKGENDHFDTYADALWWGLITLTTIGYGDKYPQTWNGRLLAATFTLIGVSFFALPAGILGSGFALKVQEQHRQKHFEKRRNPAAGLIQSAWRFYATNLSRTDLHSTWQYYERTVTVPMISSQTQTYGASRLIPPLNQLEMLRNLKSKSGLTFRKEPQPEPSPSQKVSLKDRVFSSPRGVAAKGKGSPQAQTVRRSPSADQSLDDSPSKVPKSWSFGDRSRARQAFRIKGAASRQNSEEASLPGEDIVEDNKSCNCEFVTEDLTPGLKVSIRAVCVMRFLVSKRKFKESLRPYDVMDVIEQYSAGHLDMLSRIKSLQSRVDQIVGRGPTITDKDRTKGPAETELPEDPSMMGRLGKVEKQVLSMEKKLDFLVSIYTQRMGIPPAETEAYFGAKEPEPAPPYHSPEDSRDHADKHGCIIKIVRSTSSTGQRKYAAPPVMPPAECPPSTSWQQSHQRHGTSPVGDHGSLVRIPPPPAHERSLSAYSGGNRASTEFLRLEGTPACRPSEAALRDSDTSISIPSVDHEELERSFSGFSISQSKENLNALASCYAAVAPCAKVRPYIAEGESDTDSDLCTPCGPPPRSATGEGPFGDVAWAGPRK

## O=C(Nc1cccnc1)Nc1cccc(Cl)c1
[1]
  EC50: 18.3 µM (active)

## O=C(CSc1nnc(CCCN2C(=O)c3cccc4cccc(c34)C2=O)n1-c1ccccc1)N1CCN(CCO)CC1
[2]
  IC50: 9.27 µM (active)

## COC(=O)c1cc(N2C(=O)C3C(C2=O)C2(C)C=CC3(C)O2)ccc1Cl (centres undefined)
[3]
  IC50: > 56.8 µM (inactive)
[4]
  IC50: > 56.8 µM (inactive)
